target: Recombinant human ULK1 (1-649) (Homo sapiens (Human), UniProt O75385); assay: ULK1 ADP Glo kinase activity assay, new method (ULKtide peptide substrate); settings: 25° C., 40 minutes, read-out: ULK1 biochemical IC50
Method in brief: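 Kinase activity was read as ADP production (ADP-Glo, luminescence 30 min after detection reagent) following a 40-min, 25 °C reaction of Sf9-expressed GST-ULK1 (1-649) with ULKtide substrate and ATP. Compounds ran as 12-point series starting at 10 μM; four-parameter curve fitting versus DMSO wells gave IC50.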

Chain of Recombinant human ULK1 (1-649) (O75385 1-649): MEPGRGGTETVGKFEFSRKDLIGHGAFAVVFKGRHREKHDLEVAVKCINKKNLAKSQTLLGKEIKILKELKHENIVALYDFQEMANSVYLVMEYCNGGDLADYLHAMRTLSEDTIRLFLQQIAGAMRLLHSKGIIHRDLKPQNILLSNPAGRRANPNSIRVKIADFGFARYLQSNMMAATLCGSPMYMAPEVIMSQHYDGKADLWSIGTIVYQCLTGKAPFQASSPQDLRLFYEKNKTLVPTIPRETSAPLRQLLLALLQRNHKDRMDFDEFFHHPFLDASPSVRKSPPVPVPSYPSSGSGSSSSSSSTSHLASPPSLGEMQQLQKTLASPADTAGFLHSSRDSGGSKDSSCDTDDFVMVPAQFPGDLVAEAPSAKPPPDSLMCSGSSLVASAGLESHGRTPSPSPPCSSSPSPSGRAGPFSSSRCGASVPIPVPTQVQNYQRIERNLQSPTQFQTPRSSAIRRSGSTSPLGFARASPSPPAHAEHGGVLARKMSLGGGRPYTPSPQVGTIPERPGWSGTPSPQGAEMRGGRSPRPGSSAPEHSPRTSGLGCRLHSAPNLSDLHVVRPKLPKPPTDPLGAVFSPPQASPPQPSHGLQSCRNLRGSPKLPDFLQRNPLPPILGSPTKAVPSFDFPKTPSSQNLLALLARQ

Row | SMILES | IC50
1 | CN1CCS(=O)(=O)c2cc(-c3nc(Nc4cc(N5CCNCC5)ccc4Cl)ncc3C(F)(F)F)sc2C1=O [Example 189, 7-(2-((2-chloro-5-(piperazin-1-yl)phenyl)amino)-5-(trifluoromethyl)pyrimidin-4-yl)-4-methyl-3,4-dihydrothieno[2,3-f][1,4]thiazepin-5(2H)-one 1,1-dioxide] | 50 to 100 nM
2 | O=C1c2sc(-c3nc(Nc4cnc(N5CC6CC(C5)N6)cc4C4CC4)ncc3C(F)(F)F)cc2S(=O)(=O)CCN1C1COC1 [Example 384, 7-(2-((6-(3,6-diazabicyclo[3.1.1]heptan-3-yl)-4-cyclopropylpyridin-3-yl)amino)-5-(trifluoromethyl)pyrimidin-4-yl)-4-(oxetan-3-yl)-3,4-dihydrothieno[2,3-f][1,4]thiazepin-5(2H)-one 1,1-dioxide] | ≤ 5 nM
3 | O=C1c2sc(-c3nc(Nc4ccc(N5C[C@H]6CC[C@@H](C5)N6)cc4C4CC4)ncc3C(F)(F)F)cc2S(=O)(=O)CCN1C1CC1 [Example 307, 7-(2-((4-((1R,5S)-3,8-diazabicyclo[3.2.1]octan-3-yl)-2-cyclopropylphenyl)amino)-5-(trifluoromethyl)pyrimidin-4-yl)-4-cyclopropyl-3,4-dihydrothieno[2,3-f][1,4]thiazepin-5(2H)-one 1,1-dioxide] | ≤ 5 nM
4 | Cc1cc2c(cc1Nc1ncc(C(F)(F)F)c(-c3cc4c(s3)C(=O)N(C)CCS4(=O)=O)n1)CCN(CC1CC1)C2 [Example 205, 7-(2-((2-(cyclopropylmethyl)-7-methyl-1,2,3,4-tetrahydroisoquinolin-6-yl)amino)-5-(trifluoromethyl)pyrimidin-4-yl)-4-methyl-3,4-dihydrothieno[2,3-f][1,4]thiazepin-5(2H)-one 1,1-dioxide] | ≤ 5 nM
5 | CCc1cc2c(cc1Nc1ncc(C(F)(F)F)c(-c3cc4c(s3)C(=O)N(C3COC3)CCS4(=O)=O)n1)CCN(CC1CC1)C2 [Example 274, 7-(2-((2-(cyclopropylmethyl)-7-ethyl-1,2,3,4-tetrahydroisoquinolin-6-yl)amino)-5-(trifluoromethyl)pyrimidin-4-yl)-4-(oxetan-3-yl)-3,4-dihydrothieno[2,3-f][1,4]thiazepin-5(2H)-one 1,1-dioxide] | ≤ 5 nM
6 | O=C1c2sc(-c3nc(Nc4cc5c(cc4Cl)CN(CCF)CC5)ncc3C(F)(F)F)cc2S(=O)(=O)CCN1C1CC1 [Example 227, 7-(2-((7-chloro-2-(2-fluoroethyl)-1,2,3,4-tetrahydroisoquinolin-6-yl)amino)-5-(trifluoromethyl)pyrimidin-4-yl)-4-cyclopropyl-3,4-dihydrothieno[2,3-f][1,4]thiazepin-5(2H)-one 1,1-dioxide] | ≤ 5 nM
7 | CCN1CCc2cc(Nc3ncc(C(F)(F)F)c(-c4cc5c(s4)C(=O)N(C)CCS5(=O)=O)n3)c(C3CC3)cc2C1 [Example 186, 7-(2-((7-cyclopropyl-2-ethyl-1,2,3,4-tetrahydroisoquinolin-6-yl)amino)-5-(trifluoromethyl)pyrimidin-4-yl)-4-methyl-3,4-dihydrothieno[2,3-f][1,4]thiazepin-5(2H)-one 1,1-dioxide] | ≤ 5 nM
8 | CCc1cc(C2CCN(CC(F)F)CC2)ccc1Nc1ncc(C(F)(F)F)c(-c2cc3c(s2)C(=O)N(C2COC2)CCS3(=O)=O)n1 [Example 296, 7-(2-((4-(1-(2,2-difluoroethyl)piperidin-4-yl)-2-ethylphenyl)amino)-5-(trifluoromethyl)pyrimidin-4-yl)-4-(oxetan-3-yl)-3,4-dihydrothieno[2,3-f][1,4]thiazepin-5(2H)-one 1,1-dioxide] | 5 to 10 nM
9 | CN1CCS(=O)(=O)c2cc(-c3nc(Nc4ccc5c(c4C4CC4)CNC5)ncc3C(F)(F)F)sc2C1=O [Example 170, 7-(2-((4-cyclopropylisoindolin-5-yl)amino)-5-(trifluoromethyl)pyrimidin-4-yl)-4-methyl-3,4-dihydrothieno[2,3-f][1,4]thiazepin-5(2H)-one 1,1-dioxide] | 10 to 50 nM
10 | Cc1nn(C2CCN(C)CC2)cc1Nc1ncc(C(F)(F)F)c(-c2cc3c(s2)C(=O)NCCS3(=O)=O)n1 [Example 182, 7-(2-((3-methyl-1-(1-methylpiperidin-4-yl)-1H-pyrazol-4-yl)amino)-5-(trifluoromethyl)pyrimidin-4-yl)-3,4-dihydrothieno[2,3-f][1,4]thiazepin-5(2H)-one 1,1-dioxide] | > 100 nM
11 | CCc1cc(N2CCNCC2)ccc1Nc1ncc(C(F)(F)F)c(-c2cc3c(s2)C(=O)N(C2COC2)CCS3(=O)=O)n1 [Example 364, 7-(2-((2-ethyl-4-(piperazin-1-yl)phenyl)amino)-5-(trifluoromethyl)pyrimidin-4-yl)-4-(oxetan-3-yl)-3,4-dihydrothieno[2,3-f][1,4]thiazepin-5(2H)-one 1,1-dioxide] | ≤ 5 nM
12 | CN1CCS(=O)(=O)c2cc(-c3nc(Nc4cnc(N5C[C@H]6C[C@@H]5CN6)cc4C4CC4)ncc3C(F)(F)F)sc2C1=O [Example 382, 7-(2-((6-((1R,4R)-2,5-diazabicyclo[2.2.1]heptan-2-yl)-4-cyclopropylpyridin-3-yl)amino)-5-(trifluoromethyl)pyrimidin-4-yl)-4-methyl-3,4-dihydrothieno[2,3-f][1,4]thiazepin-5(2H)-one 1,1-dioxide] | ≤ 5 nM
13 | CCc1cc(N2C[C@H]3CC[C@@H](C2)N3)ccc1Nc1ncc(C(F)(F)F)c(-c2cc3c(s2)C(=O)N(C2COC2)CCS3(=O)=O)n1 [Example 337, 7-(2-((4-((1R,5S)-3,8-diazabicyclo[3.2.1]octan-3-yl)-2-ethylphenyl)amino)-5-(trifluoromethyl)pyrimidin-4-yl)-4-(oxetan-3-yl)-3,4-dihydrothieno[2,3-f][1,4]thiazepin-5(2H)-one 1,1-dioxide] | ≤ 5 nM

More lines, now with the values ahead:

Row | IC50 | SMILES
14 | ≤ 5 nM | CN1CCS(=O)(=O)c2cc(-c3nc(Nc4cc5c(cc4Cl)CN(CCF)CC5)ncc3C(F)(F)F)sc2C1=O [Example 237, 7-(2-((7-chloro-2-(2-fluoroethyl)-1,2,3,4-tetrahydroisoquinolin-6-yl)amino)-5-(trifluoromethyl)pyrimidin-4-yl)-4-methyl-3,4-dihydrothieno[2,3-f][1,4]thiazepin-5(2H)-one 1,1-dioxide]
15 | ≤ 5 nM | C[C@@H]1CN(c2cc(C3CC3)c(Nc3ncc(C(F)(F)F)c(-c4cc5c(s4)C(=O)N(C4COC4)CCS5(=O)=O)n3)cn2)CCN1 [Example 374, (R)-7-(2-((4-cyclopropyl-6-(3-methylpiperazin-1-yl)pyridin-3-yl)amino)-5-(trifluoromethyl)pyrimidin-4-yl)-4-(oxetan-3-yl)-3,4-dihydrothieno[2,3-f][1,4]thiazepin-5(2H)-one 1,1-dioxide]
16 | ≤ 5 nM | O=C1c2sc(-c3nc(Nc4ccc(C5CCNCC5)cc4C4CC4)ncc3C(F)(F)F)cc2S(=O)(=O)CCN1C1CC1 [Example 240, 4-cyclopropyl-7-(2-((2-cyclopropyl-4-(piperidin-4-yl)phenyl)amino)-5-(trifluoromethyl)pyrimidin-4-yl)-3,4-dihydrothieno[2,3-f][1,4]thiazepin-5(2H)-one 1,1-dioxide]
17 | ≤ 5 nM | CC(C)N1CCc2cc(Nc3ncc(C(F)(F)F)c(-c4cc5c(s4)C(=O)N(C4CC4)CCS5(=O)=O)n3)c(C3CC3)cc2C1 [Example 248, 4-cyclopropyl-7-(2-((7-cyclopropyl-2-isopropyl-1,2,3,4-tetrahydroisoquinolin-6-yl)amino)-5-(trifluoromethyl)pyrimidin-4-yl)-3,4-dihydrothieno[2,3-f][1,4]thiazepin-5(2H)-one 1,1-dioxide]
18 | ≤ 5 nM | O=C1c2sc(-c3nc(Nc4cc5c(cc4C4CC4)CNCC5)ncc3C(F)(F)F)cc2S(=O)(=O)CCN1C1CCC1 [Example 218, 4-cyclobutyl-7-(2-((7-cyclopropyl-1,2,3,4-tetrahydroisoquinolin-6-yl)amino)-5-(trifluoromethyl)pyrimidin-4-yl)-3,4-dihydrothieno[2,3-f][1,4]thiazepin-5(2H)-one 1,1-dioxide]
19 | ≤ 5 nM | CN1CCc2cc(Cl)c(Nc3ncc(C(F)(F)F)c(-c4cc5c(s4)C(=O)N(C)CCS5(=O)=O)n3)cc2C1 [Example 169]
20 | ≤ 5 nM | CCN1CCc2cc(Nc3ncc(C(F)(F)F)c(-c4cc5c(s4)C(=O)N(C4CC4)CCS5(=O)=O)n3)c(Cl)cc2C1 [Example 213, 7-(2-((7-chloro-2-ethyl-1,2,3,4-tetrahydroisoquinolin-6-yl)amino)-5-(trifluoromethyl)pyrimidin-4-yl)-4-cyclopropyl-3,4-dihydrothieno[2,3-f][1,4]thiazepin-5(2H)-one 1,1-dioxide]
21 | ≤ 5 nM | CCc1cc(N2CCN(C)[C@@H](CO)C2)ccc1Nc1ncc(C(F)(F)F)c(-c2cc3c(s2)C(=O)N(C2COC2)CCS3(=O)=O)n1 [Example 409, (R)-7-(2-((2-Ethyl-4-(3-(hydroxymethyl)-4-methylpiperazin-1-yl)phenyl)amino)-5-(trifluoromethyl)pyrimidin-4-yl)-4-(oxetan-3-yl)-3,4-dihydrothieno[2,3-f][1,4]thiazepin-5(2H)-one 1,1-dioxide]
22 | ≤ 5 nM | CCc1cc(N2C[C@@H]3C[C@H]2CN3)ccc1Nc1ncc(C(F)(F)F)c(-c2cc3c(s2)C(=O)N(C2COC2)CCS3(=O)=O)n1 [Example 335, 7-(2-((4-((1S,4S)-2,5-diazabicyclo[2.2.1]heptan-2-yl)-2-ethylphenyl)amino)-5-(trifluoromethyl)pyrimidin-4-yl)-4-(oxetan-3-yl)-3,4-dihydrothieno[2,3-f][1,4]thiazepin-5(2H)-one 1,1-dioxide]
23 | ≤ 5 nM | CN1CCS(=O)(=O)c2cc(-c3nc(Nc4cc5c(cc4Cl)CNCC5)ncc3C(F)(F)F)sc2S1(=O)=O [Example 302, 7-(2-((7-chloro-1,2,3,4-tetrahydroisoquinolin-6-yl)amino)-5-(trifluoromethyl)pyrimidin-4-yl)-2-methyl-3,4-dihydro-2H-thieno[3,2-f][1,5,2]dithiazepine 1,1,5,5-tetraoxide]

— patent US20250144094A1 (Erasca, Inc., priority 2021, published 2025)
